ChEMBL document CHEMBL1151752, “Synthesis and structure-activity relationships of 2-amino-1-aroylnaphthalene and 2-hydroxy-1-aroylnaphthalenes as potent antitubulin agents” (J Med Chem, 2008)

Key:
KB [1] = experiment: Growth inhibition of human Pgp170 overexpressing multidrug resistant-KB-VIN10 cells after 72 hrs by methylene blue dye assay; type: functional, cell-based
KB [2] = experiment: Growth inhibition of human KB cells after 72 hrs by methylene blue dye assay; type: functional, cell-based
HT-29 = experiment: Growth inhibition of human HT-29 cells after 72 hrs by methylene blue dye assay; type: functional, cell-based; conditions: HT-29, 72 h
MKN-45 = experiment: Growth inhibition of human MKN45 cells after 72 hrs by methylene blue dye assay; type: functional, cell-based; conditions: MKN-45, 72 h
NCI-H460 = experiment: Growth inhibition of human H460 cells after 72 hrs by methylene blue dye assay; type: functional, cell-based; conditions: NCI-H460, 72 h
KB [3] = experiment: Growth inhibition of human Pgp170 overexpressing multidrug resistant-KB-TAX50 cells after 72 hrs by methylene blue dye assay; type: functional, cell-based
KB [4] = experiment: Growth inhibition of human KB-7D cells overexpressing multidrug resistant associated protein after 72 hrs by methylene blue dye assay; type: functional, cell-based
[5] = Inhibition of tubulin polymerization after 30 mins
[6] = Growth inhibition of human fibroblast Detrot 551 cells after 72 hrs by methylene blue dye assay; type: cell-based; conditions: Detrot 551, 72 h
[7] = Displacement of [3H]colchicine from tubulin after 2 hrs at 5 uM

Compound	IC50 (KB [1]) [nM]	IC50 (KB [2]) [nM]	IC50 (HT-29) [nM]	IC50 (MKN-45) [nM]	IC50 (NCI-H460) [nM]	IC50 (KB [3]) [nM]	IC50 (KB [4]) [nM]	IC50 [5] [nM]	Activity [7] [%]	IC50 [6] [nM]
CCOc1ccc2cc(OC)ccc2c1C(=O)c1cc(OC)c(OC)c(OC)c1	912	1000	1130	874	1210	–	–	–	–	–
CC(=O)O[C@H]1C(=O)[C@@]2(C)[C@H]([C@H](OC(=O)c3ccccc3)[C@]3(O)C[C@H](OC(=O)[C@H](O)[C@@H](NC(=O)c4ccccc4)c4ccccc4)C(C)=C1C3(C)C)[C@]1(OC(C)=O)CO[C@@H]1C[C@@H]2O [PACLITAXEL]	16500	3.3	–	–	–	273	7.9	–	–	–
CCc1ccc2cc(OC)ccc2c1C(=O)c1cc(OC)c(OC)c(OC)c1	512	600	667	320	764	–	–	–	–	–
CCCc1ccc2cc(OC)ccc2c1C(=O)c1cc(OC)c(OC)c(OC)c1	1100	1000	1320	840	987	–	–	–	–	–
CCCOc1ccc2cc(OC)ccc2c1C(=O)c1cc(OC)c(OC)c(OC)c1	2430	2600	2850	1760	2720	–	–	–	–	–
COc1ccc2cc(C(=O)c3cc(OC)c(OC)c(OC)c3)ccc2c1	530	510	548	462	716	–	–	–	–	–
CNc1ccc2cc(OC)ccc2c1C(=O)c1cc(OC)c(OC)c(OC)c1	364	381	512	338	416	–	–	–	–	–
COc1ccc(/C=C\c2cc(OC)c(OC)c(OC)c2)cc1O	–	–	–	–	–	–	–	–	93	–
COc1cc([C@@H]2c3cc4c(cc3[C@@H](O[C@@H]3O[C@@H]5CO[C@@H](C)O[C@H]5[C@H](O)[C@H]3O)[C@H]3COC(=O)[C@H]23)OCO4)cc(OC)c1O [ETOPOSIDE]	23000	–	–	–	–	3500	54000	–	–	–
COc1ccc2c(O)c(C(=O)c3cc(OC)c(OC)c(OC)c3)ccc2c1	> 10000	> 10000	> 10000	> 10000	> 10000	–	–	–	–	–
COc1ccc2c(C(=O)c3cc(OC)c(OC)c(OC)c3)c(N(C)C)ccc2c1	> 10000	> 10000	> 10000	> 10000	> 10000	–	–	–	–	–
COc1cc2c(c(OC)c1OC)-c1ccc(OC)c(=O)cc1[C@@H](NC(C)=O)CC2 [COLCHICINE]	–	11	10	–	18	–	–	3200	–	–
COc1ccc2c(C(=O)c3cc(OC)c(OC)c(OC)c3)c(C)ccc2c1	263	276	412	254	321	–	–	2900	67	–
COc1ccc2c(N)c(C(=O)c3cc(OC)c(OC)c(OC)c3)ccc2c1	7910	8800	9850	7430	> 10000	–	–	> 10000	–	–
COc1ccc2c(OC)c(C(=O)c3cc(OC)c(OC)c(OC)c3)ccc2c1	> 10000	> 10000	> 10000	> 10000	> 10000	–	–	–	–	–

The remaining molecules from weak to strong by IC50 (KB [1]), led by results:

IC50 (KB [1]) [nM]	IC50 (KB [2]) [nM]	IC50 (HT-29) [nM]	IC50 (MKN-45) [nM]	IC50 (NCI-H460) [nM]	IC50 (KB [3]) [nM]	IC50 (KB [4]) [nM]	IC50 [5] [nM]	Activity [7] [%]	Compound	IC50 [6] [nM]
90.1	0.4	–	–	–	17.6	1.2	–	–	CC[C@]1(O)C[C@H]2CN(CCc3c([nH]c4ccccc34)[C@@](C(=O)OC)(c3cc4c(cc3OC)N(C=O)[C@H]3[C@@](O)(C(=O)OC)[C@H](OC(C)=O)[C@]5(CC)C=CCN6CC[C@]43[C@@H]65)C2)C1 [VINCRISTINE]	–
70	65	144	53	84	–	–	2700	52	COc1ccc2c(C(=O)c3cc(OC)c(OC)c(OC)c3)c(OC)ccc2c1	–
58	72.9	69.4	44.1	85.5	–	–	4300	68	COc1ccc2c(C(=O)c3cc(OC)c(OC)c(OC)c3)cccc2c1	–
11	8.2	26.3	21	12.6	15	16.9	2600	75	COc1ccc2c(C(=O)c3cc(OC)c(OC)c(OC)c3)c(O)ccc2c1	> 1000
6.2	4.6	5.9	3.2	7.1	–	–	2800	85	COc1ccc2c(C(=O)c3cc(OC)c(OC)c(OC)c3)c[nH]c2c1	–
3.3	2.9	15.4	2.1	3.6	3.1	3.5	2400	85	COc1ccc2c(C(=O)c3cc(OC)c(OC)c(OC)c3)c(N)ccc2c1	> 1000
